Active and inactive are the calls of the source.
How the values were obtained:
[1] = biological target: T1, Hexokinase HKDC1 (Homo sapiens, UniProt Q2TB90); assay: HKDC1 hexokinase activators, dose response, biochemical, W721R variant (AID 504730); format: functional
T1 sequence (Q2TB90 whole entry): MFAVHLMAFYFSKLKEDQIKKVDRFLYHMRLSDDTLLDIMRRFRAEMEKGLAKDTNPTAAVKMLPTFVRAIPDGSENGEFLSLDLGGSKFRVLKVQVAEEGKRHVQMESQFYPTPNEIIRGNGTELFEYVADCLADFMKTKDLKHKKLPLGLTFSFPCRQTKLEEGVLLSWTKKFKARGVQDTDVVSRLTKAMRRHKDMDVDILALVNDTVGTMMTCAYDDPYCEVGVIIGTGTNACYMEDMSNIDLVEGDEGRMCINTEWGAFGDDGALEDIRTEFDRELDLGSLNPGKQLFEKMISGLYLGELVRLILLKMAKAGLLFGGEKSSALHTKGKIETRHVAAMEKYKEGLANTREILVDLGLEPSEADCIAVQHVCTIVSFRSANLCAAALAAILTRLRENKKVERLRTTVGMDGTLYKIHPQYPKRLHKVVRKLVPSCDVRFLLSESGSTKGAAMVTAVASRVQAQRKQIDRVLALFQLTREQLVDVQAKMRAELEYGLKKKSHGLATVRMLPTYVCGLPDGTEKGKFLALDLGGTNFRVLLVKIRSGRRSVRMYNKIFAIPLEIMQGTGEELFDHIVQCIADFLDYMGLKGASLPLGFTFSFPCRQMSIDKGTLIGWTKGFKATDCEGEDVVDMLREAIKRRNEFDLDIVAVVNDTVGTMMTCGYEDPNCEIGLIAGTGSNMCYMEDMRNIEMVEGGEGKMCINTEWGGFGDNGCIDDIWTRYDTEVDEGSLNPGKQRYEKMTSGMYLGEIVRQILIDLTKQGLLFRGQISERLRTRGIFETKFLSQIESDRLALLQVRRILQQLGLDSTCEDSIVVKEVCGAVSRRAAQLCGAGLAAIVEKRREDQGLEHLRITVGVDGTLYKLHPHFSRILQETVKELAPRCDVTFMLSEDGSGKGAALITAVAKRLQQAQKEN

[2] = biological target: Hexokinase-1 (Homo sapiens, UniProt P19367); assay: hexokinase 1 activators, dose response, selectivity assay for HKDC1 activator project, biochemical (AID 504762); format: functional
[3] = biological target: T2, Replicative DNA helicase DnaB (Mycobacterium tuberculosis, UniProt P9WMR3); assay: DnaB intein splicing inhibitors, dose response, biochemical, cell-free fluorescence (AID 449749); format: functional
T2 sequence (P9WMR3 whole entry): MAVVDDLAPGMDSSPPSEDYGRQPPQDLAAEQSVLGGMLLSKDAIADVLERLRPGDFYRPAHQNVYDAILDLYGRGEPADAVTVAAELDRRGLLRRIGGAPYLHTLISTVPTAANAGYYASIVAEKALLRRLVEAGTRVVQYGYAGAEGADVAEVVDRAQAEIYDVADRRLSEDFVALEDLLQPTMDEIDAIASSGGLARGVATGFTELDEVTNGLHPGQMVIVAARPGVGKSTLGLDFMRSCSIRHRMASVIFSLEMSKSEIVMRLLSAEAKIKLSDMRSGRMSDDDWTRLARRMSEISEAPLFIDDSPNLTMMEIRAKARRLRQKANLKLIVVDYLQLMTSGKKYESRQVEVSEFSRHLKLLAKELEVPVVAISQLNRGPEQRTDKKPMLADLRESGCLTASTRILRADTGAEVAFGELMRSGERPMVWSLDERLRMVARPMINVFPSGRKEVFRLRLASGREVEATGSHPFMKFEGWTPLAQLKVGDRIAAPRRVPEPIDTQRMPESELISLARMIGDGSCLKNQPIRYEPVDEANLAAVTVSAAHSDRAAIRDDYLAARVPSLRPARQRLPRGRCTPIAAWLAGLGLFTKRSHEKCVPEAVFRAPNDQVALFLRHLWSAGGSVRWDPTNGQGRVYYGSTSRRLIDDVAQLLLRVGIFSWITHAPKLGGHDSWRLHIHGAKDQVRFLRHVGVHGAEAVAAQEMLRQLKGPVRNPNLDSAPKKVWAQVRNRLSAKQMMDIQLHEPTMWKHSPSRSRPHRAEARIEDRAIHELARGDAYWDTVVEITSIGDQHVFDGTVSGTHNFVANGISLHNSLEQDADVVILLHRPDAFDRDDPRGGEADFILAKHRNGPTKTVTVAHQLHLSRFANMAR

[4] = Intein inhibitors as potential Tuberculosis drugs, a cytotoxicity screen. [Related pubchem assays (depositor defined):AID2221, AID2223, AID434968, AID435010, AID449749, AID449750, AID489010]; format: functional
[5] = biological target: Neuropeptide Y receptor type 2 (Homo sapiens, UniProt P49146); format: functional, cell-based;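 note: HEK293 cells expressing the receptor and a CNG channel; stimulus was NPY near EC95 followed by isoproterenol to raise cAMP; antagonist potency measured as restoring cAMP signal that NPY suppresses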
[6] = biological target: Neuropeptide Y receptor type 1 (Homo sapiens, UniProt P25929); format: functional;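 note: HEK293 cells with a CNG channel challenged with NPY then isoproterenol; potency as antagonist that reverses NPY suppression of cAMP signal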
[7] = biological target: T3, Protein RecA (Mycobacterium tuberculosis, UniProt P9WHJ3); assay: Fluorescence Cell-Free Homogeneous Dose Retest to Identify Inhibitors of RecA-Intein Splicing Activity. [Related pubchem assays (depositor defined):AID2097, AID2223, AID489010, AID492950]; format: functional
T3 sequence (P9WHJ3 whole entry): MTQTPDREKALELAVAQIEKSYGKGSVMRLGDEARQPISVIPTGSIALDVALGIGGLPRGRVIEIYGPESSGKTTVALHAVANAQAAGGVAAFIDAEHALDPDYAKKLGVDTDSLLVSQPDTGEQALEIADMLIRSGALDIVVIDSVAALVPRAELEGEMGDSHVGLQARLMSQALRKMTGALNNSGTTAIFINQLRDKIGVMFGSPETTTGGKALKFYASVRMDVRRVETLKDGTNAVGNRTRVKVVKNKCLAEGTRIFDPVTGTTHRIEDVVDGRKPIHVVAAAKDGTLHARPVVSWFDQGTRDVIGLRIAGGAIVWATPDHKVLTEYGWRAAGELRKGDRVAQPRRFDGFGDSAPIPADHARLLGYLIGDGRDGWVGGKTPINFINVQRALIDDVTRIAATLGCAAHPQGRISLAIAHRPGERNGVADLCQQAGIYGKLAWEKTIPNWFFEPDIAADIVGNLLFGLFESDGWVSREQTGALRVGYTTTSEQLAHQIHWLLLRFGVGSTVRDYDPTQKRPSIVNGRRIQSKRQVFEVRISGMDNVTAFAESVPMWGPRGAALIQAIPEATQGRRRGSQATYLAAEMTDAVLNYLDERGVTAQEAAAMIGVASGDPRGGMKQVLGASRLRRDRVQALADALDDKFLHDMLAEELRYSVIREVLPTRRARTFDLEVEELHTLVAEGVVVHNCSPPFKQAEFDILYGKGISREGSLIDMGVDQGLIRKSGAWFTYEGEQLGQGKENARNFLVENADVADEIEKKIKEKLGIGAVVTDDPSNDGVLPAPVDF

[8] = tested on: INS1; assay: beta cell apoptosis inhibitors, cytokine rescue, dose response, luminescence, retest (AID 449756); format: functional, cell-based; conditions: Rattus norvegicus;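 note: cell death triggered by IL-1 beta plus TNF-alpha plus IFN-gamma mixture; protective hits raise ATP signal compared with cytokine alone wells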
[9] = biological target: Nonstructural protein 1 (Influenza A virus, UniProt Q194T2); format: functional, Influenza A virus (A/California/07/2009(H1N1))
[10] = biological target: Lysine-specific demethylase 4C (Homo sapiens, UniProt Q9H3R0); assay: GASC-1 (JMJD2C) histone demethylase inhibitors, dose response, biochemical, DELFIA europium, cherry-picked samples (AID 488835); format: functional
[11] = human group III sPLA2 inhibitors, dose response, biochemical, QFRET, IC50 (AID 743457);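 note: green fluorescence rise as the enzyme cleaves BODIPY PC-A2 in liposomes; potency for inhibition of the enzyme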
[12] = biological target: T4, Bcl-2-related protein A1 (Mus musculus, UniProt Q07440); format: functional;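 note: confirmatory dose–response counterscreen on Bfl-1, used to check hits from a UBC13 polyubiquitin inhibitor campaign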
T4 sequence (Q07440 whole entry): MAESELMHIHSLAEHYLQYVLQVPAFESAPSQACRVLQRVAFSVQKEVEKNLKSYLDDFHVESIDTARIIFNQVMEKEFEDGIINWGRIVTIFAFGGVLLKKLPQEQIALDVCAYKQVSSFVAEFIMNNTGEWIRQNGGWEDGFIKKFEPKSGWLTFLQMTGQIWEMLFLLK

[13] = biological target: T5, Ubiquitin-conjugating enzyme E2 N (Homo sapiens, UniProt P61088); format: functional
T5 sequence (P61088 whole entry): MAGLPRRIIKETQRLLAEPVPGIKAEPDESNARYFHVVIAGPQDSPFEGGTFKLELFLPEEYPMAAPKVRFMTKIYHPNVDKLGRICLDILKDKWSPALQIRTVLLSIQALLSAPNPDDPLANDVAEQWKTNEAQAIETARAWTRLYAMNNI

[14] = biological target: T5, Ubiquitin-conjugating enzyme E2 N; format: functional; remark: listed apart in the source
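Throughout, for CC50: cells exposed to compound for 72 hours before luminescence readout.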

Chain of Neuropeptide Y receptor type 2 (P49146 whole entry): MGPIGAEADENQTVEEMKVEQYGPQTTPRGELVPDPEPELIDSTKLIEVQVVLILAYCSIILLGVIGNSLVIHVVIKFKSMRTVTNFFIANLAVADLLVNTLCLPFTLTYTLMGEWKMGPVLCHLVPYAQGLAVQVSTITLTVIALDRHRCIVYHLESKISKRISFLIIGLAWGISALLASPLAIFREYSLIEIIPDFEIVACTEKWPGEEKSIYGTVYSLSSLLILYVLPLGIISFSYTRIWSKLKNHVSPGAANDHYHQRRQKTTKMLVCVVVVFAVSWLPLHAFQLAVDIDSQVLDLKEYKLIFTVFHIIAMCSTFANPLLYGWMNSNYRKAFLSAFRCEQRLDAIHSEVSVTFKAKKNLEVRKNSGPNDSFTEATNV
Chain of Lysine-specific demethylase 4C (Q9H3R0 whole entry): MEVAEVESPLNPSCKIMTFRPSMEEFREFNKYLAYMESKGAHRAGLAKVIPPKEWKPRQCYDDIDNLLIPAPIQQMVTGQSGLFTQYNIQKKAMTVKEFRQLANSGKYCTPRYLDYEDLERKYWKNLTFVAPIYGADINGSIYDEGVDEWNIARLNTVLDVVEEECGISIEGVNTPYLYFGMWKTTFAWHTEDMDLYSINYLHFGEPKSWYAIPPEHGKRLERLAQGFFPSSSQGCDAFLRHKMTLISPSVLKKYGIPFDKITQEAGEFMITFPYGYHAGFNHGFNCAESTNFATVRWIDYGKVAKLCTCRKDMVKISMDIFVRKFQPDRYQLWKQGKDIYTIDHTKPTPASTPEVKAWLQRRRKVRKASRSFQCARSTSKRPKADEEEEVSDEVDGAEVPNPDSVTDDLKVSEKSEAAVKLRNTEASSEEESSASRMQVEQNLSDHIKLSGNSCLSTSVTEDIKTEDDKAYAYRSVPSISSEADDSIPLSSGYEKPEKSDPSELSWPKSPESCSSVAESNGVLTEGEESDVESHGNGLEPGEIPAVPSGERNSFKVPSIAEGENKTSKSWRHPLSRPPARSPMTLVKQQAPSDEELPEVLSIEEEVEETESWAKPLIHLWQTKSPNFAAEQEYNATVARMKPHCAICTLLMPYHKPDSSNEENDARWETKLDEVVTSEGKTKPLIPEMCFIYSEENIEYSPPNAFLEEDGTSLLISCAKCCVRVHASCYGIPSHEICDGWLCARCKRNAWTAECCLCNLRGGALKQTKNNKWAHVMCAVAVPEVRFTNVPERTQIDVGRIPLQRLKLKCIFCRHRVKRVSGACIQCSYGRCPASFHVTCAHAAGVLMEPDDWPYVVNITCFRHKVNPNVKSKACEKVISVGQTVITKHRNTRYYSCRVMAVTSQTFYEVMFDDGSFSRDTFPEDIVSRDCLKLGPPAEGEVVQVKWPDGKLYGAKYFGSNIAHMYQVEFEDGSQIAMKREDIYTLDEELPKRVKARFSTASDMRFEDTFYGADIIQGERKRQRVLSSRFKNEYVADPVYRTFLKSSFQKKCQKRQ
Chain of Nonstructural protein 1 (Q194T2 whole entry): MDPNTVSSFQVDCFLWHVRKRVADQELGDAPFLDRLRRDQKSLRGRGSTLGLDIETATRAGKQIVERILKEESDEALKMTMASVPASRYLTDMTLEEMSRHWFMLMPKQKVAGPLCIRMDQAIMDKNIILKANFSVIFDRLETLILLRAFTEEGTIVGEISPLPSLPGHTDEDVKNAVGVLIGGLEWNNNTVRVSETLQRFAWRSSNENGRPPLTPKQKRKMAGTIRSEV
Chain of Neuropeptide Y receptor type 1 (P25929 whole entry): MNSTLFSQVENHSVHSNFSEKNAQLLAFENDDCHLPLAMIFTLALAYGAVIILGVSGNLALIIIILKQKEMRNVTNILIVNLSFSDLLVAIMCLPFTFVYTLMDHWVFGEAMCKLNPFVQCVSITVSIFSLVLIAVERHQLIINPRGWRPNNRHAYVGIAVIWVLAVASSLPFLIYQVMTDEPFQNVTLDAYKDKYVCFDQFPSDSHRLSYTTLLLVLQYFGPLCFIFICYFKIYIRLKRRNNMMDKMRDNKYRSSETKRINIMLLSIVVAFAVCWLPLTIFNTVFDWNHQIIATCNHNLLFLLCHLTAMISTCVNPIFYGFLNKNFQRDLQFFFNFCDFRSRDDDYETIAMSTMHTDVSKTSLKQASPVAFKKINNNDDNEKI
Chain of Hexokinase-1 (P19367 whole entry): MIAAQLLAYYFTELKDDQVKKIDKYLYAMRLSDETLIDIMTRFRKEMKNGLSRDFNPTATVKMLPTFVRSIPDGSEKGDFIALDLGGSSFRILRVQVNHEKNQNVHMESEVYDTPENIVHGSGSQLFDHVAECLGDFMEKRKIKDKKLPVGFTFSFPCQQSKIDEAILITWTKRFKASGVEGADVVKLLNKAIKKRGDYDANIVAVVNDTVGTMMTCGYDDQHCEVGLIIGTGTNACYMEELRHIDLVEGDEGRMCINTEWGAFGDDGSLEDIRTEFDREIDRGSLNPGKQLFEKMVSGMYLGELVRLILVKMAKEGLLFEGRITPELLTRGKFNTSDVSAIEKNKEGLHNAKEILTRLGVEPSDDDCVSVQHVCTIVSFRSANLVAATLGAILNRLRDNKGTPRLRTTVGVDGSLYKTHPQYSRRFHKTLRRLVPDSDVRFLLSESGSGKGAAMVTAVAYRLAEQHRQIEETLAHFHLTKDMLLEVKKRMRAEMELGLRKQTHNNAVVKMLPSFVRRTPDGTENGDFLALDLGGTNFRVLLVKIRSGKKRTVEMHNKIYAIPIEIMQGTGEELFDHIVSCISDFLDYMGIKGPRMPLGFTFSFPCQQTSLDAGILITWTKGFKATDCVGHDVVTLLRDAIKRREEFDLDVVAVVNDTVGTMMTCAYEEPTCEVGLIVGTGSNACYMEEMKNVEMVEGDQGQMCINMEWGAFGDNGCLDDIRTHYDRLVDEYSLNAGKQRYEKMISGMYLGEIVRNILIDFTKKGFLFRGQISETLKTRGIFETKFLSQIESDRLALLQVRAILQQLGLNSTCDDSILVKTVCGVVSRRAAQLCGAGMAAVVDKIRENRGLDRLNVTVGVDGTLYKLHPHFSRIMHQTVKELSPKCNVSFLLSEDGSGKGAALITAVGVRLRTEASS

## Cc1ccccc1NC1=NN=C(c2ccccc2F)CS1
[1]
  EC50: 27 µM (inactive)
[2]
  EC50: 53.2 µM (inactive)

## COC(=O)c1c(C)oc2ccc(N(C(=O)c3ccncc3)S(=O)(=O)c3ccc4ccccc4c3)cc12
[3]
  AC50: 4.46 µM (active)
[4]
  CC50: 36.5 µM (active)
[5]
  IC50: 7.94 µM (active)
[6]
  IC50: 4.84 µM (active)
[7]
  EC50: 4.08 µM (active)
[8]
  AC50: 12.9 µM (active)

## Cc1cccc(-n2cnc(C(=O)NN=C(S)Nc3ccccc3)c2)n1
[9]
  IC50: 4.86 µM (active)
[10]
  AC50: 5.67 µM (active)
[11]
  IC50: > 122 µM (inactive)
[12]
  IC50: > 20 µM (inactive)
[13]
  IC50: 6.96 µM (active)
[14]
  IC50: 14.8 µM (active)
